Values after ≈ are worked out from the molar mass of the structure shown.
Key:
Homo sapiens = organism: Homo sapiens; test: Selectivity ratio of Ki for human His-tagged full length AURKAto Ki for GST-tagged full length ITK (unknown origin)
[1] = Apparent permeability across MDCK cells; format: ADME, cell-based, Canis lupus familiaris; conditions: dog
physchem [2] = conditions: PBS buffer, pH 7.4, Kinetic_solubility
physchem [3] = conditions: 1-octanol/phosphate buffer, pH 7.4, logD
[4] = buffer, pH 7.4, 24 h, 10000 µM
[5] = target: T1, Tyrosine-protein kinase ITK/TSK (Homo sapiens, UniProt Q08881)
T1 sequence (Q08881 whole entry): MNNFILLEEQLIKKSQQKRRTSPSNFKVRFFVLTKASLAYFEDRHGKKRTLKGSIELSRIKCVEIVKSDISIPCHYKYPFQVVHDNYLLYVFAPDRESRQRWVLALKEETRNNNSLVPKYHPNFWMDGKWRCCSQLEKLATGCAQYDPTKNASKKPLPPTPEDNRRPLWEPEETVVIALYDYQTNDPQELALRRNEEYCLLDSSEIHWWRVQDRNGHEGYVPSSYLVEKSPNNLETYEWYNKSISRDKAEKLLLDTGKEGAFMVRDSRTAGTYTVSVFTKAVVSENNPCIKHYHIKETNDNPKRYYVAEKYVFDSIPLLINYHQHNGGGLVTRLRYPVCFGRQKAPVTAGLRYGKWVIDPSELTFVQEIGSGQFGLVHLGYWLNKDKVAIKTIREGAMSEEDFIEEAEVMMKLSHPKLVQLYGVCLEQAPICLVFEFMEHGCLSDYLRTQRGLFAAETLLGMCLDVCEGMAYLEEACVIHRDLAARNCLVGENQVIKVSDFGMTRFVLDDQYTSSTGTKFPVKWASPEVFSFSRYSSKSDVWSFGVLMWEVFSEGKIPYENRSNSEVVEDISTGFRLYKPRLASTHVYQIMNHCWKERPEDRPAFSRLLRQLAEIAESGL

[6] = target: T1, Tyrosine-protein kinase ITK/TSK; remark: listed apart in the source
Aurora kinase A = target: T2, Aurora kinase A (Homo sapiens, UniProt O14965)
T2 sequence (O14965 whole entry): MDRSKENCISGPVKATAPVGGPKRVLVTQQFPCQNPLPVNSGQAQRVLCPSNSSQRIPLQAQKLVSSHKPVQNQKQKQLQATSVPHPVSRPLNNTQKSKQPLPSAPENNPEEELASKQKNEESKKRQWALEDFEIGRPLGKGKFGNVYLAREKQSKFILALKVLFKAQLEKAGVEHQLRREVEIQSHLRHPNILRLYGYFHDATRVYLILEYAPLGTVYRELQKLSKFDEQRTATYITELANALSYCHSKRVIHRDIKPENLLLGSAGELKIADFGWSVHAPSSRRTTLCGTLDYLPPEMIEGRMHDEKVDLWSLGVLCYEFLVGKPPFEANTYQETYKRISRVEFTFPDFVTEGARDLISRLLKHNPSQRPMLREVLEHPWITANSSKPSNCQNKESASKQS

[7] = octanol/water, pH 7.4, 20 min, 10000 µM
[8] = Plasma protein binding in human; format: ADME, cell-free; conditions: read-out: PPB (converted)

Row | solubility kinetic at 24 h, 10000 µM (physchem [2]) | logD at 20 min, 10000 µM (physchem [3]) | Ki (Aurora kinase A) | SMILES | also measured
1 | – | – | – | N#Cc1cccc(Cn2cc(NC(=O)c3n[nH]c4c3CC(c3cn[nH]c3)CC4)cn2)c1 (racemic) [listing 1 of 2 here] | Ratio Ki (Homo sapiens): 25
2 | < 1 µM | 3.4 | – | N#Cc1cccc(Cn2cc(NC(=O)c3n[nH]c4cc(-c5cn[nH]c5)ccc34)cn2)c1 | Papp [1]: 0.1 ×10⁻⁶ cm/s
3 | – | – | – | COC1(C)CCc2c(C(=O)Nc3cnn(Cc4ccccc4)c3)n[nH]c2C1 (centres undefined) | Kinetic_solubility [4]: 29 µM
4 | – | 2.4 | 220 nM | N#Cc1cccc(Cn2cc(NC(=O)c3n[nH]c4c3CC(c3cn[nH]c3)CC4)cn2)c1 (centres undefined) [listing 1 of 2 here] | Ki [5]: 9.4 nM; IC50 [6]: 2200 nM
5 | < 1 µM | 4.3 | 480 nM | CC1(C)CCc2c(C(=O)Nc3cnn(Cc4ccccc4)c3)n[nH]c2C1 | Papp [1]: 7.6 ×10⁻⁶ cm/s
6 | – | – | – | O=C(Nc1cnn(Cc2ccccc2)c1)c1n[nH]c2c1CCC1(CCOC1)C2 (centres undefined) | Kinetic_solubility [4]: 60 µM
7 | < 1 µM | 4 | 1100 nM | CC1CCc2c(C(=O)Nc3cnn(Cc4ccccc4)c3)n[nH]c2C1 (racemic) | –
8 | < 1 µM | 4.3 | 1700 nM | CC1(C)CCc2[nH]nc(C(=O)Nc3cnn(Cc4ccccc4)c3)c2C1 | –
9 | 102 µM (≈ 44.1 µg/mL) | 1.3 | 19 nM | CC1(C)CCc2c(C(=O)Nc3cnn([C@H](c4ccccc4)C4CCNCC4)c3)n[nH]c2C1 | Papp [1]: 0.1 ×10⁻⁶ cm/s
10 | 13 µM (≈ 4.33 µg/mL) | – | 2000 nM | O=C(Nc1cnn(Cc2ccccc2)c1)c1n[nH]c2c1CC1CC1C2 (racemic) | logD [7]: 2.5
11 | – | – | 54 nM | CC12Cc3[nH]nc(C(=O)Nc4cnn(Cc5ccccc5)c4)c3CC1C2 (centres undefined) | Kinetic_solubility [4]: 1.6 µM
12 | 14 µM (≈ 4.85 µg/mL) | 2.6 | 780 nM | N#Cc1cccc(Cn2cc(NC(=O)c3n[nH]c4c3CCCC4)cn2)c1 | Ratio Ki (Homo sapiens): 26
13 | 14 µM (≈ 6.38 µg/mL) | 2.5 | 2100 nM | CC1(C)CCc2c(C(=O)Nc3cnn([C@@H](CCS(C)(=O)=O)c4ccccc4)c3)n[nH]c2C1 | Ratio Ki (Homo sapiens): 340; Papp [1]: 3.2 ×10⁻⁶ cm/s; Ki [5]: 6.2 nM; IC50 [6]: 310 nM
14 | – | – | – | N#Cc1cccc(Cn2cc(NC(=O)c3n[nH]c4c3CC(c3cn[nH]c3)CC4)cn2)c1 (centres undefined) [listing 2 of 2 here] | Ratio Ki (Homo sapiens): 23
15 | 78 µM (≈ 28.3 µg/mL) | 2.4 | 2900 nM | O=C(Nc1cnn(Cc2ccccc2)c1)c1n[nH]c2c1CCC1(COC1)C2 | –
16 | 49 µM (≈ 20.6 µg/mL) | 2 | – | CN(C)CC[C@H](c1ccccc1)n1cc(NC(=O)c2n[nH]c3c2CCC(C)(C)C3)cn1 | –

Row | solubility kinetic at 24 h, 10000 µM (physchem [2]) | logD at 20 min, 10000 µM (physchem [3]) | Ki (Aurora kinase A) | SMILES | also measured
17 | 42 µM (≈ 17.1 µg/mL) | 2.7 | 210 nM | CN(C)C[C@@H](c1ccccc1)n1cc(NC(=O)c2n[nH]c3c2CCC(C)(C)C3)cn1 | Papp [1]: 8.1 ×10⁻⁶ cm/s
18 | 25 µM (≈ 11.4 µg/mL) | 2.7 | 290 nM | CN(C)CC[C@@H](c1cccc(Cl)c1)n1cc(NC(=O)c2n[nH]c3c2CCC(C)(C)C3)cn1 | –
19 | – | 2.2 | – | COC1(C)CCc2c(C(=O)Nc3cnn(Cc4ccccc4)c3)n[nH]c2C1 (racemic) | Kinetic_solubility [4]: 77 µM
20 | – | – | 200 nM | CC1(CO)CCc2c(C(=O)Nc3cnn(Cc4ccccc4)c3)n[nH]c2C1 (centres undefined) | Kinetic_solubility [4]: 83 µM; logD [7]: 2.7
21 | 72 µM (≈ 31.3 µg/mL) | 2.4 | 500 nM | Cc1cccc([C@H](CCN(C)C)n2cc(NC(=O)c3n[nH]c4c3CCC(C)(C)C4)cn2)c1 | Papp [1]: 4.3 ×10⁻⁶ cm/s
22 | < 1 µM | 3.9 | 180 nM | O=C(Nc1cnn(Cc2ccccc2)c1)c1n[nH]c2c1CCC1(CC1)C2 | –
23 | < 1 µM | – | 210 nM | N#Cc1cccc(Cn2cc(NC(=O)c3n[nH]c4c3CC(c3cn[nH]c3)CC4)cn2)c1 (racemic) [listing 2 of 2 here] | Ki [5]: 8.3 nM; IC50 [6]: 1700 nM; logD [7]: 2.5
24 | 77 µM (≈ 28.1 µg/mL) | 2.6 | 2300 nM | CC1(CO)CCc2c(C(=O)Nc3cnn(Cc4ccccc4)c3)n[nH]c2C1 (racemic) | –
25 | 1.3 µM (≈ 0.452 µg/mL) | 3.8 | 440 nM | CC12Cc3[nH]nc(C(=O)Nc4cnn(Cc5ccccc5)c4)c3CC1C2 (racemic) | –
26 | – | 2 | 870 nM | O=C(Nc1cnn(Cc2ccccc2)c1)c1n[nH]c2c1CC1CC1C2 (centres undefined) | Kinetic_solubility [4]: 18 µM
27 | – | – | 520 nM | CC1CCc2c(C(=O)Nc3cnn(Cc4ccccc4)c3)n[nH]c2C1 (centres undefined) | –
28 | 5.8 µM (≈ 1.99 µg/mL) | 3 | 870 nM | N#Cc1cccc(Cn2cc(NC(=O)c3n[nH]c4ccccc34)cn2)c1 | Ratio Ki (Homo sapiens): 20; Ki [5]: 43 nM
29 | – | 2.2 | > 5700 nM | O=C(Nc1cnn(Cc2ccccc2)c1)c1n[nH]c2c1CCC1(CCOC1)C2 (racemic) | Kinetic_solubility [4]: 20 µM
30 | < 1 µM | 3.8 | 950 nM | O=C(Nc1cnn(Cc2ccccc2)c1)c1n[nH]c2c1CCC(F)(F)C2 | –
31 | 94 µM (≈ 42.7 µg/mL) | – | 15 nM | CN(C)CC[C@@H](c1ccccc1)n1cc(NC(=O)c2n[nH]c3cc(-c4cn[nH]c4)ccc23)cn1 | fraction unbound [8]: 0.03

Reference: ChEMBL document CHEMBL3297697, “Property- and structure-guided discovery of a tetrahydroindazole series of interleukin-2 inducible T-cell kinase inhibitors” (J Med Chem, 2014)
